The source of these data is US20240325386A1, “THERAPEUTIC AGENT FOR COVID-19” (FUJIFILM Toyama Chemical Co., Ltd., priority 2021, published 2024).

In assay [1] the test system is SARS-CoV-2. In kind it is in vivo.
The test system of assay [2] is SARS-CoV-2. The note with it: Japanese phase III clinical study, as reported in Non-patent Literature 4 (news release); cited from earlier work.
The mark [3] stands for this setting: mITT, N = 107, improvement in body temperature, SpO2, chest imaging and SARS-CoV-2 negative conversion.

Read-outs that look alike come from different tables or passages of the source.

As for `NC(=O)c1nc(F)cnc1O` [Compound A, 6-fluoro-3-hydroxy-2-pyrazinecarboxamide], the “median time to improvement shorter than in the control group” value in assay [1] (mITT, Compound A group 107 patients vs control group 49 patients) is given as “approximately 3 days”. Further, the Patients with improvement in assay [1] (mITT, Compound A group N = 107, 1,800 mg BID Day 1 + 800 mg BID up to 13 days, oral, plus standard of care) came out at 81. In assay [1] (setting [3]), the “Median time to improvement in 25% of patients” value worked out at 7.8 days, the “Median time to improvement in 50% of patients” value was 11.9 days and the “Median time to improvement in 75% of patients” value was 15.6 days. Also, in assay [1] (subgroup of patients testing negative for both IgG antibody and IgA antibody), the “median time to improvement shorter than in the control group” value was “approximately 5 days”. Moreover, the “time to improvement of body temperature, SpO2, chest image findings and SARS-CoV-2 negative conversion (primary endpoint) shorter than in the control group” value in assay [2] is listed as “approximately 3 days”.
